Measurements reported in article PMC6689897, “Drugging an undruggable pocket on KRAS” (Proceedings of the National Academy of Sciences of the …, 2019).

How the values were obtained:
Experiment in all cases: Alpha Screen PPI assay
Type in all cases: biochemical
GTP-KRASG12C::CRAF = GTP-KRASG12C::CRAF (Homo sapiens, UniProt P01116, C118S/C51S/C80L/G12C); details: duplicate
Experimental: (§1) 221 Measurements of various protein–protein interactions were performed using the Alpha
(§2) 222 Screen technology developed by Perkin Elmer. Recombinant RAS proteins (H-, N-, K-
(§3) 223 RAS variants; all KRAS variants are based on KRAS isoform 4B (uniprot id P01116-2);
(§4) 224 KRAS (G12D) 1-169, N-terminal 6His-tag, C-terminal avi-tag was from Xtal
(§5) 225 BioStructures, Inc., KRAS (G12C) 1-169, C-terminal avi-tag, biotinylated, mutations:
(§6) 226 C51S, C80L, C118S, NRAS(wt) 1-172, C-terminal avi-tag, biotinylated; HRAS(wt) 1-
(§7) 227 166, C-terminal avi-tag, biotinylated). Biotinylation was performed in vitro with
(§8) 228 recombinant BirA biotin-protein ligase as recommended by the manufacturer (Avidity
(§9) 229 LLC, Aurora, Colorado, USA). Interacting proteins such as SOS1 (564-1049, N-terminal
(§10) 230 GST-tag, TEV cleavage site), cRaf (1-303, N-terminal GST-tag, TEV cleavage site) and
(§11) 231 PI3KA- RBD (160-317, N-term-HIS_GST-tag) were expressed as glutathione S
(§12) 232 transferase (GST) fusions. Accordingly, the Alpha Screen beads were glutathione coated
(§13) 233 Alpha Lisa acceptor beads (Perkin Elmer AL 109 R) and Alpha Screen Streptavidin
(§14) 234 conjugated donor beads (Perkin Elmer 6760002L). Nucleotides were purchased from
(§15) 236 interaction assays were carried out in PBS, containing 0.1% bovine serum albumin,
(§16) 237 0,05% Tween-20 and 10 µM of the corresponding nucleotide. Assays were carried out in
(§17) 238 white ProxiPlate-384 Plus plates (Perkin Elmer #6008280) in a final volume of 20 µL. In
(§18) 239 brief, biotinylated RAS proteins (10 nM final concentration) and GST-SOS1, GST-PI3K
(§19) 240 or GST-CRAF (10 nM final) were mixed with glutathione acceptor beads (5 µg/mL final
(§20) 241 concentration) in buffer, containing the corresponding nucleotides (GDP or GTP for
(§21) 242 assays containing SOS1, only GTP for interaction assays containing PI3K or CRAF) and
(§22) 243 were incubated for 30 min at room temperature. After addition of streptavidin donor
(§23) 244 beads (5 µg/mL final concentration) under green light, the mixture was further incubated
(§24) 245 for 60 min in the dark at room temperature. Single oxygen induced fluorescence was
(§25) 246 measured at an Enspire multimode plate reader (Perkin Elmer) according to the
(§26) 247 manufacturer’s recommendations. […]

GTP-KRASG12C::SOS1 = GTP-KRASG12C::SOS1 (Homo sapiens, UniProt P01116, C118S/C51S/C80L/G12C); details: duplicate
Experimental: as §1, §2, §3, §4, §5, §6, §7, §8, §9, §10, §11, §12, §13, §14, §15, §16, §17, §18, §19, §20, §21, §22, §23, §24, §25, §26

GTP-KRASG12C::PI3Kα = GTP-KRASG12C::PI3Kα (Homo sapiens, UniProt P01116, C118S/C51S/C80L/G12C); details: duplicate, read-out: IC50 GTP-KRASG12C::PI3K
Experimental: as §1, §2, §3, §4, §5, §6, §7, §8, §9, §10, §11, §12, §13, §14, §15, §16, §17, §18, §19, §20, §21, §22, §23, §24, §25, §26

GDP-KRASG12C::SOS1 = GDP-KRASG12C::SOS1 (Homo sapiens, UniProt P01116, C118S/C51S/C80L/G12C); details: for IC50: Alpha Screen, duplicate
Experimental: as §1, §2, §3, §4, §5, §6, §7, §8, §9, §10, §11, §12, §13, §14, §15, §16, §17, §18, §19, §20, §21, §22, §23, §24, §25, §26

GDP-KRASG12D::SOS1 = target: T1, GDP-KRASG12D::SOS1 (Homo sapiens, UniProt P01116, G12D); details: for IC50: Alpha Screen, duplicate
T1 construct: KRAS (G12D) 1-169, N-terminal 6His-tag, C-terminal avi-tag was from Xtal; 6His-tag (N); purchased Xtal BioStructures, Inc
Experimental: as §1, §2, §3, §4, §5, §6, §7, §8, §9, §10, §11, §12, §13, §14, §15, §16, §17, §18, §19, §20, §21, §22, §23, §24, §25, §26

Compound | IC50 (GTP-KRASG12C::CRAF) [nM] | IC50 (GTP-KRASG12C::SOS1) [nM] | IC50 (GTP-KRASG12C::PI3Kα) [nM] | activity on the GDP-dependent KRAS^G12C::SOS1 interaction (GDP-KRASG12C::SOS1) | IC50 (GDP-KRASG12C::SOS1) [nM] | inhibition of GDP-dependent interaction with G12D instead of G12C (GDP-KRASG12D::SOS1) | IC50 (GDP-KRASG12D::SOS1) [nM]
C=CC(=O)N1CCN(c2ncnc3c(F)c(-c4c(O)cccc4F)c(Cl)cc23)CC1 [ARS-1620, reference compound] | > 10000 | > 10000 | > 10000 | displayed activity | 590 | lost the ability to inhibit | > 10000
Cn1cnc(Cn2ccc3ccc(CNCc4[nH]c5ccccc5c4[C@H]4NC(=O)c5ccc(O)cc54)cc32)c1 [Compound 1] | 180 | 360 | 100 | – | 450 | maintained the inhibitory function | 260
